The values below come from patent US12116597B2, “Autophagy as a therapeutic target for intracranial aneurysm” (THE BOARD OF REGENTS OF THE UNIVERSITY OF TEXAS SYSTEM, priority 2022, dated 2024).

For this assay, the system named is Thsd1-deficient zebrafish. As to the kind of experiment: Intracranial hemorrhage incidence in thsd1-MO zebrafish embryos treated with autophagy inhibitors. The note with it: thsd1-MO injected zebrafish embryos; added to embryo water at 1 dpf for 24 hours; 3-MA 10 mM, wortmannin 50 nM, verteporfin 1 uM; FIG. 11. The format is in vivo. As for the experimental part:
Anti-sense morpholinos against thsd1, atg5 or talin was injected into one-cell stage zebrafish singly or in combination to silence the gene accordingly. At day 2 to day 3, embryos will be checked under regular optical microscope. Embryos with intracranial hemorrhages will be counted and imaged by Olympus microscope.
To test the hypothesis that autophagy inhibition could treat intracranial hemorrhage in-vivo 80-120 different zebrafish animals genetically engineered as described in Table 5 were treated with three distinct autophagy inhibitors, namely, 3-MA, wortmannin, or verteporfin. Control (DMSO) or other known autophagy inhibitors including 3-MA (10 mM), wortmannin (50 nM), and verteporfin (1 uM) were added to embryo water at 1 dpf for 24 hours. All embryos were injected by thsd1-MO and the hemorrhagic incidence was counted under microscope. For each injection, around 80-120 embryos were injected. *p<0.05, **p<0.01, n.s. means not significant.
After significant effort in contacting individuals and sequencing the families shown in FIG. 1A, the present disclosure first identified THSD1 as a gene associated with sub-cranial hemorrhage. In specific cases, a single codon substitution was identified as responsible for the phenotype L5F, R460W, E466G, G600E, P639L, T653I, or S775P. […]

For the compound `Cn1cnc(N)c2ncnc1-2` [3-MA, 3-Methyladenine], the “intracranial hemorrhage (hemorrhagic incidence counted under microscope)” value is recorded as “rescued intracranial hemorrhage”.
Take Verteporfin: the “intracranial hemorrhage (hemorrhagic incidence counted under microscope)” value was “rescued intracranial hemorrhage”.
